Key:
Assay type in all cases: in vivo
C57BL/6 mice [1] = experiment: Blood lactate after transient ischemia; details: 6-hour reperfusion; 2 weeks 289 nmol/kg; P<0.05 compared to vehicle
Experimental: (§1) C57BU6 mice were bred in house. Male mice, aged 23 (±1) weeks, were used for experiments. They were fed standard chow (#5075, Charles Rivers, Saint-Constant, Québec, Canada) and water ad libitum, and housed singly during treatment periods (2 weeks). Daily pharmacological treatments with 300 μg/kg (289 nmol/kg) of EP 80317 or 289 nmol/kg of CP-3(IV), 289 nmol/kg of CP-AP-4 or vehicle (0.9% NaCl) were done by subcutaneous (s.c.) injections.
(§2) Experimental model of IHD: Transient left coronary artery ligation in vivo. Mice were subjected to a transient LCAL surgery as described before, with minor modifications [Tarnayski et al., 2004]. Mice were injected i.p. with buprenorphine (0.05 mg/kg) and placed in an induction chamber with inhalation anesthesia comprised of 3% isoflurane mixed with 100% oxygen. Mice were intubated with a blunt ended 20-gauge catheter into the trachea via the mouth and mechanically ventilated at a tidal volume of 7 ml/kg at 130 respirations/min with a MiniVent™ mouse ventilator (model 845, Harvard Apparatus, Saint-Laurent, QC, Canada). Anesthesia was maintained with 1.5-2% isoflurane and the animals were kept warm using electrical heating pads during the surgical procedure. The chest was opened by a horizontal incision through the skin and muscle layers at the third intercostal space exposing the left side of the heart. […] Visual blanching distal to the coronary occlusion confirmed myocardial ischaemia. Lidocaine (6 mg/kg) was administered i.p. just following occlusion and prior to reperfusion. After 30 minutes, the PE10 tubing was removed allowing reperfusion. The lungs were reinflated and the chest wound closed layer by layer before extubation. At 6 hours following reperfusion, mice were anesthetized (isoflurane), a blood sample withdrawn, and the heart arrested in diastole by an intravenous injection of 1 M KCl (0.5 mL). Hearts were immediately frozen at −80° C. unless otherwise stated.
Blood lactate. Blood lactate was determined using the Lactate Pro Analyser (FaCT Canada Consulting Ltd, Quesnel, BC, Canada), according to the manufacturer's instructions.

C57BL/6 mice [2] = experiment: Cardiac troponin I (cTnI) in plasma, ELISA; details: 48 hours post-ischemia; 2 weeks 289 nmol/kg; compared to vehicle
Experimental: as §1
as §2, with “At 6 hours following reperfusion, mice were anesthetized (isoflurane), a blood sample withdrawn, and the heart arrested in diastole by an intravenous injection of 1 M KCl (0.5 mL).” left out
Cardiac troponin I (cTnI) concentrations in plasma. cTnI plasma levels were assayed using the High Sensitivity Mouse Cardiac Troponin-I ELISA Kit (Life Diagnostics, Inc., West Chester, Pa., Cat. No. 2010-1-HSP), according to the manufacturer's instructions.

[3] = test system: CD36^+/+ and CD36^−/− mice; experiment: Myeloperoxidase assay of myocardial leukocyte accumulation; details: 48 hours reperfusion; CD36-dependent (CD36^+/+ mice); 10-week pretreatment; p<0.05
Experimental: as §2, with “At 6 hours following reperfusion, mice were anesthetized (isoflurane), a blood sample withdrawn, and the heart arrested in diastole by an intravenous injection of 1 M KCl (0.5 mL). Hearts were immediately frozen at −80° C. unless otherwise stated.” left out
Myeloperoxidase assay. […] The numbers of PMN per left ventricle were calculated from the standard curves.

[4] = test system: CD36^+/+ and CD36^−/− mice; experiment: Ventricular and ejection volumes by ECG-gated μPET after transient myocardial ischemia; details: EP 80317-treated WT mice vs 0.9% NaCl
Experimental: as §2
Imaging experiments. Imaging experiments were performed with the avalanche photodiode-based small animal PET scanner (μPET) [Lecomte et al., 1996]. Before imaging, the heart position was localized with a Doppler probe (0.64 cm, 9 MHz; Parks Medical Electronics). […]
Imaging Data Analysis. For [^11C]-acetate images, dynamic series of 25 frames each were sorted out whereas 27 frames were used for ^18FDG and ^18FTHA imaging, and were reconstructed and analyzed using multicompartmental analysis [Menard et al., 2009] or the Patlak method for FTHA [Patlak and Blasberg, 1985]. […]

Substance: HAIC-2MeDTrp-DLys-Trp-DPhe-Lys-NH2 [EP 80317]
- reduction of lactate concentration in blood (C57BL/6 mice [1]): 34%
- reduction of cardiac troponin I (cTnI) levels in plasma (C57BL/6 mice [2]): 60%
- reduction in myocardial leukocyte accumulation [3]: 53%
- increase of end-systolic ventricular volume [4]: 26%
- increase of end-diastolic ventricular volume ([4]; p<0.01): 31%
- increase of stroke volume ([4]; p<0.01): 33%
